The source made the active and inactive calls. The calls are words filed in the database; no cut-off is given here.
Key:
Plasmodium falciparum [1] = assay: Antimalarial activity against Plasmodium falciparum 3D7A infected erythrocytes by [3H]hypoxanthine uptake; assay type: functional, organism-based
Plasmodium yoelii [2] = assay: Antimalarial activity as reduced parasitaemia against Plasmodium yoelii YM in CD1 mice (Mus musculus) given a single peroral dose; assay type: functional; conditions: po
Plasmodium falciparum [3] = assay: Antimalarial activity as parasite elimination against Plasmodium falciparum infected Aotus monkeys at 10 mg/kg/day for 7 days; assay type: functional, organism-based
Plasmodium yoelii [4] = assay: Antimalarial activity as reduced parasitaemia against Plasmodium yoelii YM in CD1 mice (Mus musculus) after 7 peroral doses over 4 days; assay type: functional; conditions: po, 96 h
Plasmodium falciparum [5] = assay: Antimalarial activity against Plasmodium falciparum T9-96 infected Rhesus positive human erythrocytes by [3H]hypoxanthine uptake; assay type: functional, organism-based
Plasmodium falciparum [6] = assay: Antimalarial activity against Plasmodium falciparum FCR3-A infected erythrocytes as [3H]hypoxanthine incorporation; assay type: functional, organism-based

| IC50 (Plasmodium falciparum [1]) [nM] | IC50 (Plasmodium falciparum [5]) [nM] | IC50 (Plasmodium falciparum [6]) [nM] | Structure (SMILES) | ED50 (Plasmodium yoelii [2]) [mg/kg] | Activity (Plasmodium falciparum [3]) | ED50 (Plasmodium yoelii [4]) [mg/kg] |
| --- | --- | --- | --- | --- | --- | --- |
| 5 | 30 | 1 | Cc1[nH]c(C)c(-c2ccc(Oc3ccc(OC(F)(F)F)cc3)cc2)c(=O)c1Cl | 0.4 | Active | 0.2 |
| – | 30 | – | Cc1[nH]c(C)c(-c2ccc(Oc3cccc(C(F)(F)F)c3)cc2)c(=O)c1Br | 3.6 | – | 0.6 |
| – | 2500 | – | Cc1[nH]c(C)c(-c2ccc(Cl)cc2)c(=O)c1Cl | – | – | 20 |
| – | 30 | – | Cc1[nH]c(C)c(-c2ccc(Oc3cccc(Cl)c3)cc2)c(=O)c1Br | – | – | 3.9 |
| 110 | – | – | Cc1[nH]cc(Br)c(=O)c1-c1ccc(Oc2ccc(OC(F)(F)F)cc2)cc1 | – | – | – |
| – | 450 | – | Cc1c(Br)c(=O)c(-c2ccc(Oc3ccc(Cl)cc3)cc2)c(C)n1O | – | – | 1 |
| – | – | – | CCN(CC)CCCC(C)Nc1ccnc2cc(Cl)ccc12 (centres undefined) [CHLOROQUINE] | – | – | 1.8 |
| – | 40 | – | Cc1[nH]c(C)c(-c2ccc(Oc3ccc(F)cc3)cc2)c(=O)c1Br | – | – | 0.6 |
| > 1000 | – | – | Cc1[nH]c(C(F)(F)F)c(Br)c(=O)c1-c1ccc(Oc2ccc(OC(F)(F)F)cc2)cc1 | – | – | – |
| – | 60 | – | Cc1[nH]c(C)c(-c2ccc(Oc3ccc(Cl)cc3)cc2)c(=O)c1Cl | – | – | 0.6 |
| – | 11000 | – | Cc1[nH]c(C)c(-c2ccccc2)c(=O)c1Cl | – | – | 22 |
| 7 | – | – | Cc1[nH]c(C)c(-c2cccc(Oc3ccc(OC(F)(F)F)cc3)c2)c(=O)c1Br | – | – | – |
| > 1000 | – | – | O=c1c(-c2ccc(Oc3ccc(OC(F)(F)F)cc3)cc2)c[nH]c(C(F)(F)F)c1Br | – | – | – |
| – | 2200 | – | Cc1cc(=O)c(-c2ccc(Oc3ccc(Cl)cc3)cc2)c(C)n1O | – | – | > 1 |
| 200 | – | – | Cc1[nH]cc(-c2ccc(Oc3ccc(OC(F)(F)F)cc3)cc2)c(=O)c1Br | – | – | – |
| – | 4000 | – | CCCCCCCCc1c(C)[nH]c(C)c(Cl)c1=O | – | – | > 60 |
| 400 | – | – | Cc1[nH]c(C)c(-c2ccccc2Oc2ccc(OC(F)(F)F)cc2)c(=O)c1Br | – | – | – |

| IC50 (Plasmodium falciparum [1]) [nM] | IC50 (Plasmodium falciparum [5]) [nM] | IC50 (Plasmodium falciparum [6]) [nM] | Structure (SMILES) | ED50 (Plasmodium yoelii [2]) [mg/kg] | Activity (Plasmodium falciparum [3]) | ED50 (Plasmodium yoelii [4]) [mg/kg] |
| --- | --- | --- | --- | --- | --- | --- |
| – | 60 | – | Cc1[nH]c(C)c(-c2ccc(Oc3ccc(C(F)(F)F)cc3)cc2)c(=O)c1Cl | – | – | 0.6 |
| – | 250 | – | Cc1cc(=O)c(-c2ccc(Oc3ccc(Cl)cc3)cc2)c(C)[nH]1 | – | – | 2.5 |
| 5 | 30 | 2.5 | Cc1[nH]c(C)c(-c2ccc(Oc3cccc(C(F)(F)F)c3)cc2)c(=O)c1Cl | 0.2 | – | 0.2 |
| – | 30 | – | Cc1[nH]c(C)c(-c2ccc(Oc3cccc(Cl)c3)cc2)c(=O)c1Cl | – | – | > 5 |
| – | 400 | – | Cc1[nH]c(C)c(-c2ccc(-c3ccc(Cl)cc3)cc2)c(=O)c1Cl | – | – | 0.7 |
| – | 40 | – | Cc1[nH]c(C)c(-c2ccc(Oc3ccc(Cl)cc3)cc2)c(=O)c1Br | 5 | – | 0.3 |
| – | 50 | – | Cc1[nH]c(C)c([C@H]2CC[C@H](c3ccc(Cl)cc3)CC2)c(=O)c1Cl | – | – | 0.6 |
| 160 | 160 | – | Cc1cc(=O)c(-c2ccc(Oc3ccc(OC(F)(F)F)cc3)cc2)c(C)[nH]1 | – | – | > 5 |
| – | 500 | – | Cc1cc(=O)c(-c2ccc(Oc3ccc(C(F)(F)F)cc3)cc2)c(C)[nH]1 | – | – | 1.3 |
| 300 | – | – | COc1c(C)[nH]c(C)c(-c2ccc(Oc3cccc(C(F)(F)F)c3)cc2)c1=O | – | – | – |
| 8 | 30 | – | Cc1[nH]c(C)c(-c2ccc(Oc3ccc(OC(F)(F)F)cc3)cc2)c(=O)c1Br | 0.2 | Active | 0.3 |
| 30 | – | – | Cc1[nH]c(C)c([N+](=O)[O-])c(=O)c1-c1ccc(Oc2ccc(OC(F)(F)F)cc2)cc1 | – | – | – |
| – | 150 | – | Cc1[nH]c(C)c(-c2ccc(Oc3ccccc3)cc2)c(=O)c1Br | – | – | 4 |
| 1290 | – | – | Cc1[nH]c(C)c(-c2ccc(Oc3ccc(OC(F)(F)F)cc3)cc2)c(=O)c1CN1CCCC1 | – | – | – |
| – | 20000 | – | Cc1nc(C)c(Cl)c(O)c1Cl [CLOPIDOL] | – | – | 40 |
| – | 30 | – | Cc1[nH]c(C)c(-c2ccc(Oc3ccc(C(F)(F)F)cc3)cc2)c(=O)c1Br | 1.1 | – | 0.3 |
| 30 | – | – | Cc1[nH]c(C)c(C(F)(F)F)c(=O)c1-c1ccc(Oc2ccc(OC(F)(F)F)cc2)cc1 | – | – | – |

| Structure (SMILES) | IC50 (Plasmodium falciparum [1]) [nM] | IC50 (Plasmodium falciparum [5]) [nM] | IC50 (Plasmodium falciparum [6]) [nM] | ED50 (Plasmodium yoelii [2]) [mg/kg] | Activity (Plasmodium falciparum [3]) | ED50 (Plasmodium yoelii [4]) [mg/kg] |
| --- | --- | --- | --- | --- | --- | --- |
| O=C1C(O)=C([C@H]2CC[C@H](c3ccc(Cl)cc3)CC2)C(=O)c2ccccc21 [ATOVAQUONE] | – | 3 | 1360 | – | – | 0.03 |

— ChEMBL document CHEMBL1150240, “Synthesis and structure-activity relationships of 4-pyridones as potential antimalarials” (J Med Chem, 2008)
